Structures are written as SMILES. Numbered stars: 1 amine (or outer) side, 2 acyl side, 3 side chain; on linkers, the order of the positions; unused ones are H or OH. Bridge positions count the residues as written; N and C are the ends. Square brackets hold non-standard residues; d marks the D form. Peptide text beside a SMILES is read from it. * marks the point of attachment. X1 = O=C1C[C@@H](C(=O)[*:2])N([*:1])C[C@H]1CS[C@@H]1CN2CCC1CC2; NMePhe(4-NMe2) = CN[C@@H](Cc1ccc(N(C)C)cc1)C(=O)O; Picolinoyl(3-OH) = O=C(c1ncccc1O)*; Phg = N[C@H](C(=O)O)c1ccccc1; dAbu = CC[C@@H](N)C(=O)O

The text below walks through data of patent publication US4798827A, “Synergistin derivatives and pharmaceutical compositions which contain them” (Rhone-Poulenc Sante, priority 1986, dated 1989).

The data set in a line: solubility in water (as salts / hydrochlorides). The following applies: product with 0.1N hydrochloric acid and distilled water.

`CC[C@H]1NC(=O)[C@@H](NC(=O)c2ncccc2O)[C@@H](C)OC(=O)[C@H](c2ccccc2)NC(=O)[C@@H]2CC(=O)[C@H](CS[C@@H]3CN4CCC3CC4)CN2C(=O)[C@H](Cc2ccc(N(C)C)cc2)N(C)C(=O)[C@@H]2CCCN2C1=O` [Example 1, 5δ-[(3-Quinuclidinyl)thiomethyl]pristinamycin IA] ({Picolinoyl(3-OH)}-T[dAbu]P[NMePhe(4-NMe2)][X1][Phg]; ester 1-C): the “strength of aqueous solution obtained” value was determined as 5%.
